Results: US20140011889A1, “Resveratrol-Containing Compositions and Methods of Use for Cardiac-Related Diseases” (Resveratrol Partners, LLC, priority 2010, published 2014)

How the values were obtained:
[1] = test system: isolated perfused rat hearts; test: Myocardial infarct size, TTC staining (Example 6); assay type: in vivo, Sprague-Dawley rats
Procedure: Infarct size estimation. Infarct size was measured using the triphenyl tetrazolium chloride (TTC) staining method. Malik et al. […] After two hours of reperfusion, 40 ml of 1% (w/v) solution of TTC in phosphate buffer was infused into the aortic cannula, and the heart samples were stored at −70° C. for subsequent analysis. Sections (0.8 mm) of frozen heart were fixed in 2% paraformaldehyde, placed between two cover slips and digitally imaged using a Microtek ScanMaker 600z (Microtek, USA). To quantitate the areas of infarct in pixels, a standard National Institutes of Health image program was used. The infarct size was quantified and expressed in pixels. At the end of each experiment the hearts were either subjected to TTC staining to determine infarct size or TUNEL staining to detect apoptosis.

brain tissue = test: Gene expression in brain tissue; assay type: in vivo, mice; conditions: mouse brain tissue
Text: Similar effects have been observed in non-heart tissue.

cardiomyocytes = test: Cardiomyocyte apoptosis, TUNEL (Example 6); assay type: in vivo, Sprague-Dawley rats
Procedure: Cardiomyocyte apoptosis. Immunochemical detection of apoptotic cells was performed using the terminal deoxynucleotidyl transferase-medicated dUTP nick-end labeling (TUNEL) method. Malik et al. […] The sections were incubated with mouse monoclonal antibody recognizing cardiac myosin heavy chain to specifically detect apoptotic cardiomyocytes. The fluorescence staining was viewed with a confocal laser microscope. The number of apoptotic cells was counted and expressed as a percent of the total myocyte population. At the end of each experiment the hearts were either subjected to TTC staining to determine infarct size or TUNEL staining to detect apoptosis.

[2] = test system: biological processes (GO), cardiac tissue; test: Biological processes (GO) affected by altered gene expression in cardiac tissue; assay type: in vivo, mice
reactive oxygen species = test: Intracellular ROS by CM-H2DCFDA fluorescence in I/R heart; assay type: in vivo, rat; conditions: IR heart, FIG. 19
Procedure: The dye was injected intravenously, prior to induction of ischemia/reperfusion, and at the end of the experiments, the level of fluorescence was determined for the generation of ROS by measuring the fluorescent oxidation product CM-DCF in the cytosol, at an excitation wavelength of 480 nm and an emission wavelength of 520 nm.

Structure (SMILES): Oc1ccc(/C=C/c2cc(O)cc(O)c2)cc1 [resveratrol, 3,4′,5-trihydroxy-trans-stilbene]
- myocardial infarct size ([1]; 2.5 and 25 mg/kg): significantly reduced
- myocardial infarct size ([1]; above 50 mg/kg): significant increased
- genes with altered expression, treatment and calorie reduced diets, number (brain tissue): 10 genes
- cardiomyocyte apoptosis (cardiomyocytes; 2.5 and 25 mg/kg): significantly reduced
- number of apoptotic cardiomyocytes (cardiomyocytes; above 50 mg/kg): significant increased
- genes changed, GO: 0006596 Polyamine Biosynthetic Process ([2]; 5 genes in series): 2
- genes changed, GO: 0006625 Protein Targeting To Peroxisome ([2]; 5 genes in series): 2
- genes changed, GO: 0006983 ER Overload Response ([2]; 5 genes in series): 2
- genes changed, GO: 0006353 Transcription Termination ([2]; 6 genes in series): 2
- genes changed, GO: 0045351 Interferon Type I Biosynthetic Process ([2]; 6 genes in series): 2
- genes changed, GO: 0001958 Endochondral Ossification ([2]; 8 genes in series): 2
- genes changed, GO: 0007091 Mitotic Metaphase/Anaphase Transition ([2]; 8 genes in series): 2
- genes changed, GO: 0007143 Female Meiosis ([2]; 8 genes in series): 2
- genes changed, GO: 0045577 Regulation Of B Cell Differentiation ([2]; 8 genes in series): 2
- genes changed, GO: 0046330 Positive Regulation Of JNK Cascade ([2]; 8 genes in series): 2
- genes changed, GO: 0006825 Copper Ion Transport ([2]; 9 genes in series): 3
- genes changed, GO: 0033554 Cellular Response To Stress ([2]; 14 genes in series): 3
- genes changed, GO: 0006888 ER To Golgi Vesicle-Mediated Transport ([2]; 16 genes in series): 3
- genes changed, GO: 0006919 Caspase Activation ([2]; 16 genes in series): 3
- genes changed, GO: 0000723 Telomere Maintenance ([2]; 17 genes in series): 3
- genes changed, GO: 0030041 Actin Filament Polymerization ([2]; 17 genes in series): 3
- genes changed, GO: 0043280 Positive Regulation Of Caspase Activity ([2]; 17 genes in series): 3
- genes changed, GO: 0051016 Barbed-End Actin Filament Capping ([2]; 17 genes in series): 3
- genes changed, GO: 0008299 Isoprenoid Biosynthetic Process ([2]; 19 genes in series): 3
- genes changed, GO: 0006446 Regulation Of Translational Initiation ([2]; 20 genes in series): 4
- genes changed, GO: 0043281 Regulation Of Caspase Activity ([2]; 27 genes in series): 5
- genes changed, GO: 0008064 Regulation Of Actin Polymerization And/Or Depolymerization ([2]; 30 genes in series): 4
- genes changed, GO: 0050673 Epithelial Cell Proliferation ([2]; 30 genes in series): 4
- genes changed, GO: 0005977 Glycogen Metabolic Process ([2]; 31 genes in series): 7
- genes changed, GO: 0030832 Regulation Of Actin Filament Length ([2]; 31 genes in series): 4
- genes changed, GO: 0051258 Protein Polymerization ([2]; 32 genes in series): 6
- genes changed, GO: 0006112 Energy Reserve Metabolic Process ([2]; 35 genes in series): 7
- genes changed, GO: 0048193 Golgi Vesicle Transport ([2]; 37 genes in series): 6
- genes changed, GO: 0008154 Actin Polymerization And/Or Depolymerization ([2]; 39 genes in series): 6
- genes changed, GO: 0006413 Translational Initiation ([2]; 40 genes in series): 6
- genes changed, GO: 0043085 Positive Regulation Of Enzyme Activity ([2]; 40 genes in series): 5
- genes changed, GO: 0045454 Cell Redox Homeostasis ([2]; 40 genes in series): 6
- genes changed, GO: 0005976 Polysaccharide Metabolic Process ([2]; 42 genes in series): 9
- genes changed, GO: 0007018 Microtubule-Based Movement ([2]; 72 genes in series): 9
- genes changed, GO: 0007178 Transmembrane Receptor Protein Serine/Threonine Kinase Signaling Pathway ([2]; 75 genes in series): 7
- genes changed, GO: 0006511 Ubiquitin-Dependent Protein Catabolic Process ([2]; 109 genes in series): 9
- genes changed, GO: 0019941 Modification-Dependent Protein Catabolic Process ([2]; 111 genes in series): 9
- genes changed, GO: 0006457 Protein Folding ([2]; 124 genes in series): 13
- genes changed, GO: 0007017 Microtubule-Based Process ([2]; 155 genes in series): 12
- genes changed, GO: 0006605 Protein Targeting ([2]; 161 genes in series): 12
- genes changed, GO: 0008380 RNA Splicing ([2]; 162 genes in series): 12
- genes changed, GO: 0006281 DNA Repair ([2]; 178 genes in series): 13
- genes changed, GO: 0006974 Response To DNA Damage Stimulus ([2]; 217 genes in series): 15
- genes changed, GO: 0044262 Cellular Carbohydrate Metabolic Process ([2]; 221 genes in series): 18
- genes changed, GO: 0050790 Regulation Of Catalytic Activity ([2]; 241 genes in series): 21
- genes changed, GO: 0005975 Carbohydrate Metabolic Process ([2]; 316 genes in series): 21
- genes changed, GO: 0007264 Small Gtpase Mediated Signal Transduction ([2]; 320 genes in series): 22
- genes changed, GO: 0006412 Translation ([2]; 338 genes in series): 25
- genes changed, GO: 0006512 Ubiquitin Cycle ([2]; 356 genes in series): 27
- genes changed, GO: 0006886 Intracellular Protein Transport ([2]; 357 genes in series): 26
- genes changed, GO: 0006091 Generation Of Precursor Metabolites And Energy ([2]; 390 genes in series): 24
- genes changed, GO: 0007010 Cytoskeleton Organization And Biogenesis ([2]; 403 genes in series): 26
- genes changed, GO: 0046907 Intracellular Transport ([2]; 523 genes in series): 43
- genes changed, GO: 0009059 Macromolecule Biosynthetic Process ([2]; 525 genes in series): 35
- genes changed, GO: 0015031 Protein Transport ([2]; 581 genes in series): 38
- genes changed, GO: 0045184 Establishment Of Protein Localization ([2]; 610 genes in series): 38
- genes changed, GO: 0051649 Establishment Of Cellular Localization ([2]; 653 genes in series): 45
- genes changed, GO: 0008104 Protein Localization ([2]; 663 genes in series): 38
- genes changed, GO: 0044249 Cellular Biosynthetic Process ([2]; 710 genes in series): 45
- genes changed, GO: 0006996 Organelle Organization And Biogenesis ([2]; 897 genes in series): 53
- genes changed, GO: 0009058 Biosynthetic Process ([2]; 979 genes in series): 60
- share of the 220 biological processes with affected genes, calorie restricted mice ([2]; mouse cardiac tissue): failed to affect any genes in any of these processes
- intracellular ROS concentration compared to control (reactive oxygen species): lowered
